Values joined by “and” are separate entries in the source; they are usually repeats but may differ in a detail not shown here. Equal entries are not always repeated.
Tests used:
MCA205 tumor cells = test: In vivo anti-tumoral activity of Example 166 in a MCA205 tumor model; set-up: species or system C57BL/6 mice
Description: Sarcoma MCA205 tumor cell line was cultured in vitro in DMEM supplemented with 10% FBS, 1% Penicillin-Streptomycin, 1 mM HEPES. Before inoculation in mice, cell viability was assessed by flow cytometry analysis and viable cell gating. A cell suspension was prepared according to the viable cell count.
Female C57BL/6 mice were inoculated subcutaneously in the right flank region with MCA205 tumor cells (0.5×10^6) in 0.1 ml of PBS for tumor development on day 1. Tumor volumes were measured thrice per week in two dimensions using a caliper, and the volume was expressed in mm^3 using the formula: “V=(L×W×W)/2”, where V is tumor volume, L is tumor length (the longest tumor dimension) and W is tumor width (the longest tumor dimension perpendicular to L). When the mean tumor size reached approximately 80 mm^3, mice were randomly allocated into groups (10 mice per group) and treated with or without an anti-PD-1 antibody (RPM1-14, 5 mg/kg, ip, on days 1, 4, 7, 10), with or without the compound of Example 166 (30 or 100 mg/kg, po, QD, 5% DMSO/95% (10% w/v solution of HP-3-CD in water) v/v) for 23 days).
Animals were checked daily for morbidity and mortality. During routine monitoring, the animals were checked for any effects on tumor growth and treatments on behavior such as mobility, food and water consumption, body weight gain/loss (body weights were measured thrice per week), eye/hair matting and any other abnormalities.

Pan02 tumor cells = test: In vivo anti-tumoral activity of Example 166 in a Pan02 tumor model; set-up: species or system C57BL/6 mice
Description: Pan02 tumor cells were maintained in vitro as a monolayer culture in RPM11640 medium supplemented with 10% fetal bovine serum at 37° C. in an atmosphere of 5% CO2 in air. The cells were routinely subcultured twice weekly by trypsin-EDTA treatment. The cells in an exponential growth phase were harvested and counted for tumor inoculation. Female C57BL/6 mice were inoculated subcutaneously in the right rear flank region with Pan02 tumor cells (3×10^6) in 0.1 ml of PBS for tumor development on day 0. Tumor volumes were measured thrice per week in two dimensions using a caliper, and the volume was expressed in mm^3 using the formula: “V=(L×W×W)/2”, where V is tumor volume, L is tumor length (the longest tumor dimension) and W is tumor width (the longest tumor dimension perpendicular to L). When the mean tumor size reached approximately 100 mm^3, mice were randomly allocated into groups (10 mice per group) and treated with or without the compound of Example 166 (3, 10, 30, 100 or 300 mg/kg, po, QD, 5% DMSO/95% (10% w/v solution of HP-β-CD in water) v/v) for at least 3 weeks). Animals were checked daily for morbidity and mortality. During routine monitoring, the animals were checked for any effects on tumor growth and treatments on behavior such as mobility, food and water consumption, body weight gain/loss (body weights were measured thrice per week), eye/hair matting and any other abnormalities. Dosing as well as tumor and body weight measurements were conducted in a Laminar Flow Cabinet. The body weights and tumor volumes were monitored by using StudyDirector™ software (version 3.1.399.19).

C[C@H](NC(=O)C1(N2CC[C@@H](Oc3cccc(C(F)(F)F)c3)C2)CC1)c1ccc(C(=O)O)cc1.Cl [Example 166, 4-[(1S)-1-[[1-[(3R)-3-[3-(Trifluoromethyl)phenoxy]pyrrolidin-1-yl]cyclopropane-1-carbonyl]amino]ethyl]benzoic acid, hydrochloride]
Tumor Growth Inhibition TGI (%) (MCA205 tumor cells; Example 166 30 mg/kg po QD + anti-PD1 antibody 5 mg/kg ip, day 1): 0.1% | Tumor Growth Inhibition TGI (%) (MCA205 tumor cells; Example 166 30 mg/kg po QD + anti-PD1 antibody 5 mg/kg ip, day 3): 8.3% | Tumor Growth Inhibition TGI (%) (MCA205 tumor cells; Example 166 30 mg/kg po QD + anti-PD1 antibody 5 mg/kg ip, day 6): 30.6% | Tumor Growth Inhibition TGI (%) (MCA205 tumor cells; Example 166 30 mg/kg po QD + anti-PD1 antibody 5 mg/kg ip, day 8): 47.4% | Tumor Growth Inhibition TGI (%) (MCA205 tumor cells; Example 166 30 mg/kg po QD + anti-PD1 antibody 5 mg/kg ip, day 10): 58.6% | Tumor Growth Inhibition TGI (%) (MCA205 tumor cells; Example 166 30 mg/kg po QD + anti-PD1 antibody 5 mg/kg ip, day 13): 55.7% | Tumor Growth Inhibition TGI (%) (MCA205 tumor cells; Example 166 30 mg/kg po QD + anti-PD1 antibody 5 mg/kg ip, day 15): 49.3% | Tumor Growth Inhibition TGI (%) (MCA205 tumor cells; Example 166 30 mg/kg po QD + anti-PD1 antibody 5 mg/kg ip, day 17): 52.2% | Tumor Growth Inhibition TGI (%) (MCA205 tumor cells; Example 166 30 mg/kg po QD, day 1): −6.1% | Tumor Growth Inhibition TGI (%) (MCA205 tumor cells; Example 166 30 mg/kg po QD, day 3): −6.3% | Tumor Growth Inhibition TGI (%) (MCA205 tumor cells; Example 166 30 mg/kg po QD, day 6): −22.4% | Tumor Growth Inhibition TGI (%) (MCA205 tumor cells; Example 166 30 mg/kg po QD, day 8): 9.8% | Tumor Growth Inhibition TGI (%) (MCA205 tumor cells; Example 166 30 mg/kg po QD, day 10): 10.2% | Tumor Growth Inhibition TGI (%) (MCA205 tumor cells; Example 166 30 mg/kg po QD, day 13): 6.4% | Tumor Growth Inhibition TGI (%) (MCA205 tumor cells; Example 166 30 mg/kg po QD, day 15): 4.3% | Tumor Growth Inhibition TGI (%) (MCA205 tumor cells; Example 166 30 mg/kg po QD, day 17): 10.8% | Tumor Growth Inhibition TGI (%) (MCA205 tumor cells; Example 166 100 mg/kg po QD + anti-PD1 antibody 5 mg/kg ip, day 1): 1.4% | Tumor Growth Inhibition TGI (%) (MCA205 tumor cells; Example 166 100 mg/kg po QD + anti-PD1 antibody 5 mg/kg ip, day 3): 12.2% | Tumor Growth Inhibition TGI (%) (MCA205 tumor cells; Example 166 100 mg/kg po QD + anti-PD1 antibody 5 mg/kg ip, day 6): 34.3% | Tumor Growth Inhibition TGI (%) (MCA205 tumor cells; Example 166 100 mg/kg po QD + anti-PD1 antibody 5 mg/kg ip, day 8): 50.2% | Tumor Growth Inhibition TGI (%) (MCA205 tumor cells; Example 166 100 mg/kg po QD + anti-PD1 antibody 5 mg/kg ip, day 10): 66.6% | Tumor Growth Inhibition TGI (%) (MCA205 tumor cells; Example 166 100 mg/kg po QD + anti-PD1 antibody 5 mg/kg ip, day 13): 70.4% | Tumor Growth Inhibition TGI (%) (MCA205 tumor cells; Example 166 100 mg/kg po QD + anti-PD1 antibody 5 mg/kg ip, day 15): 67.3% | Tumor Growth Inhibition TGI (%) (MCA205 tumor cells; Example 166 100 mg/kg po QD + anti-PD1 antibody 5 mg/kg ip, day 17, hydrochloride): 68.0% and 68.1% | Tumor Growth Inhibition TGI (%) (MCA205 tumor cells; Example 166 100 mg/kg po QD, day 1): −0.7% | Tumor Growth Inhibition TGI (%) (MCA205 tumor cells; Example 166 100 mg/kg po QD, day 3): 13.2% | Tumor Growth Inhibition TGI (%) (MCA205 tumor cells; Example 166 100 mg/kg po QD, day 6): 12.1% | Tumor Growth Inhibition TGI (%) (MCA205 tumor cells; Example 166 100 mg/kg po QD, day 8): 16.7% | Tumor Growth Inhibition TGI (%) (MCA205 tumor cells; Example 166 100 mg/kg po QD, day 10): 25.7% | Tumor Growth Inhibition TGI (%) (MCA205 tumor cells; Example 166 100 mg/kg po QD, day 13): 32.6% | Tumor Growth Inhibition TGI (%) (MCA205 tumor cells; Example 166 100 mg/kg po QD, day 15): 23.6% | Tumor Growth Inhibition TGI (%) (MCA205 tumor cells; Example 166 100 mg/kg po QD, day 17, hydrochloride, 100 mg/kg): 31.0% | Tumor Growth Inhibition TGI (%) (Pan02 tumor cells; 3 mg/kg po QD, day 0): 0.0% | Tumor Growth Inhibition TGI (%) (Pan02 tumor cells; 3 mg/kg po QD, day 4): 8.2% | Tumor Growth Inhibition TGI (%) (Pan02 tumor cells; 3 mg/kg po QD, day 7): 2.9% | Tumor Growth Inhibition TGI (%) (Pan02 tumor cells; 3 mg/kg po QD, day 9): 2.3% | Tumor Growth Inhibition TGI (%) (Pan02 tumor cells; 3 mg/kg po QD, day 11): −8.0% | Tumor Growth Inhibition TGI (%) (Pan02 tumor cells; 3 mg/kg po QD, day 14): −5.6% | Tumor Growth Inhibition TGI (%) (Pan02 tumor cells; 3 mg/kg po QD, day 16): 10.7% | Tumor Growth Inhibition TGI (%) (Pan02 tumor cells; 3 mg/kg po QD, day 18): 9.1% | Tumor Growth Inhibition TGI (%) (Pan02 tumor cells; 3 mg/kg po QD, day 21): −1.4% | Tumor Growth Inhibition TGI (%) (Pan02 tumor cells; 10 mg/kg po QD, day 0): 0.0% | Tumor Growth Inhibition TGI (%) (Pan02 tumor cells; 10 mg/kg po QD, day 4): 14.3% | Tumor Growth Inhibition TGI (%) (Pan02 tumor cells; 10 mg/kg po QD, day 7): −2.3% | Tumor Growth Inhibition TGI (%) (Pan02 tumor cells; 10 mg/kg po QD, day 9): 0.8% | Tumor Growth Inhibition TGI (%) (Pan02 tumor cells; 10 mg/kg po QD, day 11): 2.4% | Tumor Growth Inhibition TGI (%) (Pan02 tumor cells; 10 mg/kg po QD, day 14): 11.1% | Tumor Growth Inhibition TGI (%) (Pan02 tumor cells; 10 mg/kg po QD, day 16): 21.1% | Tumor Growth Inhibition TGI (%) (Pan02 tumor cells; 10 mg/kg po QD, day 18): 22.4% | Tumor Growth Inhibition TGI (%) (Pan02 tumor cells; 10 mg/kg po QD, day 21): 16.2% | Tumor Growth Inhibition TGI (%) (Pan02 tumor cells; 30 mg/kg po QD, day 0): 0.0% | Tumor Growth Inhibition TGI (%) (Pan02 tumor cells; 30 mg/kg po QD, day 4): 17.5% | Tumor Growth Inhibition TGI (%) (Pan02 tumor cells; 30 mg/kg po QD, day 7): 19.0% | Tumor Growth Inhibition TGI (%) (Pan02 tumor cells; 30 mg/kg po QD, day 9): 16.3% | Tumor Growth Inhibition TGI (%) (Pan02 tumor cells; 30 mg/kg po QD, day 11): −8.2% | Tumor Growth Inhibition TGI (%) (Pan02 tumor cells; 30 mg/kg po QD, day 14): 5.7% | Tumor Growth Inhibition TGI (%) (Pan02 tumor cells; 30 mg/kg po QD, day 16): 9.7% | Tumor Growth Inhibition TGI (%) (Pan02 tumor cells; 30 mg/kg po QD, day 18): 13.9% | Tumor Growth Inhibition TGI (%) (Pan02 tumor cells; 30 mg/kg po QD, day 21): 7.4% | Tumor Growth Inhibition TGI (%) (Pan02 tumor cells; 100 mg/kg po QD, day 0): 0.0% | Tumor Growth Inhibition TGI (%) (Pan02 tumor cells; 100 mg/kg po QD, day 4): 17.1% | Tumor Growth Inhibition TGI (%) (Pan02 tumor cells; 100 mg/kg po QD, day 7): 21.4% | Tumor Growth Inhibition TGI (%) (Pan02 tumor cells; 100 mg/kg po QD, day 9): 20.8% | Tumor Growth Inhibition TGI (%) (Pan02 tumor cells; 100 mg/kg po QD, day 11): 23.7% | Tumor Growth Inhibition TGI (%) (Pan02 tumor cells; 100 mg/kg po QD, day 14): 44.3% | Tumor Growth Inhibition TGI (%) (Pan02 tumor cells; 100 mg/kg po QD, day 16): 42.2% | Tumor Growth Inhibition TGI (%) (Pan02 tumor cells; 100 mg/kg po QD, day 18, hydrochloride): 48.2% | Tumor Growth Inhibition TGI (%) (Pan02 tumor cells; 100 mg/kg po QD, day 21): 42.6% | Tumor Growth Inhibition TGI (%) (Pan02 tumor cells; 300 mg/kg po QD, day 0): 0.0% | Tumor Growth Inhibition TGI (%) (Pan02 tumor cells; 300 mg/kg po QD, day 4): 14.3% | Tumor Growth Inhibition TGI (%) (Pan02 tumor cells; 300 mg/kg po QD, day 7): −2.5% | Tumor Growth Inhibition TGI (%) (Pan02 tumor cells; 300 mg/kg po QD, day 9): −0.7% | Tumor Growth Inhibition TGI (%) (Pan02 tumor cells; 300 mg/kg po QD, day 11): −5.6% | Tumor Growth Inhibition TGI (%) (Pan02 tumor cells; 300 mg/kg po QD, day 14): 11.8% | Tumor Growth Inhibition TGI (%) (Pan02 tumor cells; 300 mg/kg po QD, day 16): 24.7% | Tumor Growth Inhibition TGI (%) (Pan02 tumor cells; 300 mg/kg po QD, day 18, hydrochloride): 32.9% | Tumor Growth Inhibition TGI (%) (Pan02 tumor cells; 300 mg/kg po QD, day 21): 32.8%
